Experimental data from patent publication US6492365B1, “Microsomal triglyceride transfer protein” (Bristol-Myers Squibb Company, priority 1992, dated 2002).
Where a name gives a salt, the structure may show the parent alone.

Tested on: apoB secretion from HepG2 cells
Assay: ApoB secretion from HepG2 cells (ELISA of culture media)
Format: cell-based, human
Description: (§1) HepG2 cells were treated with compound A at the indicated doses for 16 hours. The concentration in the cell culture media of apoB, apoAI and HSA after the incubation period was measured with the appropriate ELISA assay and normalized to total cell protein. The data shown are expressed as a percentage of the control (DMSO only).
as §1, with “compound B” for “compound A”
The human hepatoblastoma cell line, HepG2, was obtained from the American Type Culture Collection (Rockville, Md.; ATCC accession no. 8065). […]
Experiments to measure the effects of compounds A and B on protein secretion were carried out in 48-well plates. […] Before commencement of drug treatment, culture medium was removed, the cells washed once with PBS and 1 mL of fresh medium was added quantitatively. […] The cells were homogenized by trituration with a 1 mL micropipettor, and protein was measured using the Coomassie reagent (Pierce Chemical Co, Rockford, Ill.) as described by the manufacturer. […]

IC50 (Homo sapiens, 16-hour incubation, 0.156 to 20 μM, read-out: IC50 for inhibition of apoB secretion) [µM]	SMILES	secretion of lipoproteins that contain apoB (result in words)
5	O=C1c2ccccc2CN1C1CCN(CCC(c2ccccc2)c2ccccc2)CC1 [compound A, 2-[1-(3,3-diphenylpropyl)-4-piperdinyl]-2,3-dihydro-3-oxo-1H-isoindole hydrochloride]	
	COc1ccccc1N1CCN(CC2CC(=O)c3ccc(F)cc3C2)CC1 (centres unmarked) [compound B, 1-[3-(6-fluoro-1-tetralanyl)methyl]-4-O-methoxyphenyl piperazine]	inhibited
